Calls of active or inactive are those of the source. The calls are words filed in the database; no cut-off is given here.

The first assay concerns Mus musculus. Put plainly: Antiinflammatory activity against TPA-induced ear edema in mouse assessed per ear drug treated topically. In kind it is functional.
`C=C(C)C(O)Cc1cc(C(C)=O)ccc1O` (stereo not drawn): the ID50 amounted to 0.63 µmol.

The next assay has as its system Mus musculus. Put plainly: Antiinflammatory activity against TPA-induced ear edema in mouse at 0.5 mg/ear topically. It is filed as functional.
As to `CC(=O)c1ccc(O[C@@H]2O[C@H](CO)[C@@H](O)[C@H](O)[C@H]2O)c(CC=C(C)C)c1`, the outcome was inactive.
Regarding `CC(=O)c1ccc(O)c(CC=C(C)C)c1`, the outcome was inactive.
Compound `C=C(C)C(O)Cc1cc(C(C)=O)ccc1O` (stereo not drawn) gave an Activity of 68%.
Consider `C=C(CO[C@@H]1O[C@H](CO)[C@@H](O)[C@H](O)[C@H]1O)[C@@H]1Cc2cc(C(C)=O)ccc2O1`, for which the result was inactive.
In turn, `C=C(CO)[C@@H]1Cc2cc(C(C)=O)ccc2O1` [BITALIN A] gave an Activity of 50%.
With `Cc1occc(=O)c1O[C@@H]1O[C@H](CO)[C@@H](O)[C@H](O)[C@H]1O`, the result was inactive.
As for `CC(=O)c1ccc(O[C@@H]2O[C@H](CO)[C@@H](O)[C@H](O)[C@H]2O)c(CCO)c1`, the outcome was inactive.

These data come from ChEMBL document CHEMBL1156369, “New acetophenone glucosides isolated from extracts of Helichrysum italicum with antiinflammatory activity” (2001).
